A short description of data set [1]: Trial 1.
A short description of data set [2]: Trial 2. It is filed as in vivo, human.
The conditions of data set [3]: cited from earlier work.
For data set [4] the following is noted: cited from earlier work. The source holds these as a separate data set.
The nature of data set [5]: Trial 1: safety and tolerability, treatment-emergent adverse events. Type of data set: in vivo, human. To be noted: after warfarin 25 mg, day 9, one subject, moderate severity, possibly related to warfarin.
The mark [6] stands for this setting: trial 2, oral semaglutide 20 mg once daily.

In data set [1] (lisinopril 20 mg single dose alone, N = 52, median (minimum, maximum)), `NCCCC[C@H](N[C@@H](CCc1ccccc1)C(=O)O)C(=O)N1CCC[C@H]1C(=O)O` [Lisinopril, lisinopril] returned a tmax of 6.0 h.

As for `CN(C)C(=N)N=C(N)N` [Metformin, metformin], the “tmax in trial 2” value in data set [2] (metformin steady state, morning dose fasting) lay within 0.8 to 1.0 h. Also, the tmax generally reported in data set [3] was 2.5 h. In data set [4] (steady-state metformin), the “Increase in AUC on coadministration of multiple doses of dulaglutide” value is listed as “up to 15%”.

Broadly, the half-life is the time needed for the level to fall by half in the phase considered. In the case of `C[C@H]1O[C@@H](O[C@H]2[C@@H](O)C[C@H](O[C@H]3[C@@H](O)C[C@H](O[C@H]4CC[C@@]5(C)[C@H](CC[C@@H]6[C@@H]5C[C@@H](O)[C@]5(C)[C@@H](C7=CC(=O)OC7)CC[C@]65O)C4)O[C@@H]3C)O[C@@H]2C)C[C@H](O)[C@@H]1O` [Digoxin, digoxin], the tmax in data set [2] (digoxin 500 μg single dose alone, N = 31, median (minimum, maximum)) came to 1.0 h. Further, in data set [2] (digoxin single dose, alone and with oral semaglutide (both conditions)), the “mean t½” value is 42 to 43 h. Besides, the “absorption (incomplete)” value in data set [3] (oral) is ~ 70%. Further, in data set [3] (used to set the length of the washout periods, no reference given), the half-life was 30 to 50 h. For the same molecule, in data set [4], the “Reduction of Cmax on coadministration with liraglutide” value was 27–38%. Besides, in data set [4] (digoxin PK), the “AUC on coadministration with exenatide” value is recorded as “unchanged” and the “Decrease of Cmax on coadministration with exenatide” value is recorded as 17%.

As to `CC(=O)CC(c1ccccc1)c1c(O)c2ccccc2oc1=O` (stereo not drawn) [Warfarin, warfarin], the “INRmax of the subject with a bleeding event (epistaxis)” value in data set [5] is given as 2.53. Besides, the absorption result in data set [3] (oral) was “completely absorbed”.

As usually defined, the Cmax is the peak of the concentration-time curve. Turning to `CC[C@H](C)[C@H](NC(=O)[C@H](Cc1ccccc1)NC(=O)[C@H](CCC(=O)O)NC(=O)[C@H](CCCCNC(=O)COCCOCCNC(=O)COCCOCCNC(=O)CC[C@H](NC(=O)CCCCCCCCCCCCCCCCC(=O)O)C(=O)O)NC(=O)[C@H](C)NC(=O)[C@H](C)NC(=O)[C@H](CCC(N)=O)NC(=O)CNC(=O)[C@H](CCC(=O)O)NC(=O)[C@H](CC(C)C)NC(=O)[C@H](Cc1ccc(O)cc1)NC(=O)[C@H](CO)NC(=O)[C@H](CO)NC(=O)[C@@H](NC(=O)[C@H](CC(=O)O)NC(=O)[C@H](CO)NC(=O)[C@@H](NC(=O)[C@H](Cc1ccccc1)NC(=O)[C@@H](NC(=O)CNC(=O)[C@H](CCC(=O)O)NC(=O)C(C)(C)NC(=O)[C@@H](N)Cc1cnc[nH]1)[C@@H](C)O)[C@@H](C)O)C(C)C)C(=O)N[C@@H](C)C(=O)N[C@@H](Cc1c[nH]c2ccccc12)C(=O)N[C@@H](CC(C)C)C(=O)N[C@H](C(=O)N[C@@H](CCCNC(=N)N)C(=O)NCC(=O)N[C@@H](CCCNC(=N)N)C(=O)NCC(=O)O)C(C)C` [semaglutide], in data set [2] (setting [6]), the “AUC0–24h at steady state, range of geometric means” value is 622 to 719 nM·h and the “Cmax at steady state, range of geometric means” value lay in the range of 0.031 to 0.0358 µM. Further, the “Mean AUC0–24h at steady state” value in data set [1] (trial 1, oral semaglutide 20 mg once daily, after last dose (day 84)) turned out to be 761.96 nM·h. In data set [1] (trial 1, oral semaglutide 20 mg once daily, steady state), the “mean t½” value stood at 162 h.

As to “subcutaneous semaglutide: semaglutide as once-weekly subcutaneous injection”, the “mean t½ for subcutaneous semaglutide” value in data set [3] was 156 to 160 h.
